Patent US7476401B2, “Protein and peptide delivery to mammalian cells in vitro” (Mirus Bio LLC, priority 2003, dated 2009)

System: HeLa cells
Assay: Protein delivery to HeLa cells, visualized by fluorescence confocal microscopy
Format: cell-based
Conditions: technique #2, FIG. 2B
Description: HeLa cells were maintained in DMEM containing 10% fetal bovine serum. For polypeptide delivery, cells were plated in 6-well plates containing glass cover slips at a density of 50,000-100,000 cells per well and grown for 24-48 hours before incubation with polypeptide formulations.
Two different techniques were used for contacting polypeptide formulations with cells. In both techniques, cells were grown to 30-70% confluency and washed once with 2 ml 37° C. PBS prior to addition of polypeptide formulations.
Technique #1: Peptide formulations were diluted by addition of 150 μl 37° C. PBS (180-200 μl total volume). Formulations were than added to cells on cover slips. Following a 5 min incubation at room temperature (RT) 0.8 ml 37° C. DMEM was added to each well and cells were again incubated for 5 min at RT. Media was then aspirated off cells and 2.0 ml DMEM containing 10% bovine serum was added. […]
Visualization of polypeptide delivery to cells: In order to visually analyze polypeptide delivery, cells were washed 3× with PBS, fixed for 30 min at 4° C. in PBS containing 4% formaldehyde and washed 3× with PBS. Cover slips were then mounted onto slides for fluorescence microscopy using a Zeiss LSM510 laser confocal microscope. Rhodamine was detected by exciting with a HeNe laser at 543 nm and detecting with a 560 nm long pass filter. […]

## modification #26: Rhodamine-labeled Bovine Serum Albumin modified with chlorodimethyloctadecylsilane, dried, hydrated with PBS
  uptake of modified protein by cells: uptake of BSA
